From the NIST ThermoML archive (doi:10.1021/je050544m) come the findings set out here.

Numbers after ± are expanded uncertainties.

A short description of this data set: activity coefficient (dimensionless); of the first substance listed, at infinite dilution; xn = mol fraction of the nth substance listed. The conditions noted are these: 101 kPa, Liquid, x1 = 0.

For the compound `CCOC(C)=O` [ethyl acetate] + CCCCCCCC[n+]1ccn(C)c1.F[B-](F)(F)F, the activity coefficient by setting is: (323 K, Chromatography) 1.55 ± 0.16; (343 K, Chromatography) 1.62 ± 0.17.
The like results for `ClCCCl` [1,2-dichloroethane] + CCCCCCCC[n+]1ccn(C)c1.F[B-](F)(F)F were, in that order, 0.93 ± 0.09 and 0.95 ± 0.1.
On the same counts, the results for `ClC(Cl)Cl` [trichloromethane] + CCn1cc[n+](C)c1.F[B-](F)(F)F are 0.73 ± 0.08 and 0.84 ± 0.09.
In the case of `CC(C)CC(C)(C)C` [2,2,4-trimethylpentane] + CCn1cc[n+](C)c1.F[B-](F)(F)F, the activity coefficient (303 K, Chromatography) worked out at 222 ± 23; the activity coefficient (323 K, Chromatography) was found to be 168 ± 18; the activity coefficient (343 K, Chromatography) came out at 162 ± 17.
For `CCCO` [propan-1-ol] + CCCCCCn1cc[n+](C)c1.F[B-](F)(F)F, the activity coefficient (323 K, Chromatography) amounted to 1.86 ± 0.19 and the activity coefficient (343 K, Chromatography) turned out to be 1.63 ± 0.17.
With `CC(C)O` [propan-2-ol] + CCCCCCCC[n+]1ccn(C)c1.F[B-](F)(F)F, the activity coefficient is, setting by setting: (323 K, Chromatography) 1.41 ± 0.15; (343 K, Chromatography) 1.27 ± 0.13.
Take `CCCO` [propan-1-ol] + CCn1cc[n+](C)c1.F[B-](F)(F)F: the activity coefficient (323 K, Chromatography) was found to be 0.95 and the activity coefficient (343 K, Chromatography) came to 0.87.
As to `CC(C)=O` [acetone] + CCn1cc[n+](C)c1.F[B-](F)(F)F, the activity coefficient (323 K, Chromatography) was 1.11 ± 0.11 and the activity coefficient (343 K, Chromatography) came to 1.14 ± 0.12.
In the case of `ClC=C(Cl)Cl` [trichloroethene] + CCCCn1cc[n+](C)c1.F[B-](F)(F)F, the activity coefficient is, setting by setting: (323 K, Chromatography) 3.98 ± 0.42; (343 K, Chromatography) 4.32 ± 0.45.
Turning to `CCOCC` [diethyl ether] + CCCCCCn1cc[n+](C)c1.F[B-](F)(F)F, for the setting “343 K, Chromatography”, the activity coefficient came out at 2.53 ± 0.27.
Regarding `C1CCCCC1` [cyclohexane] + CCCCCCCC[n+]1ccn(C)c1.F[B-](F)(F)F, the activity coefficient (303 K, Chromatography) amounted to 8.52 ± 0.9; the activity coefficient (323 K, Chromatography) stood at 7.99 ± 0.84; the activity coefficient (343 K, Chromatography) came to 7.36 ± 0.77.
Consider `CCOC(C)=O` [ethyl acetate] + CCn1cc[n+](C)c1.F[B-](F)(F)F, for which the activity coefficient by setting is: (323 K, Chromatography) 3.08 ± 0.32; (343 K, Chromatography) 3.32 ± 0.35.
On the same counts, the results for `CCO` [ethanol] + CCCCn1cc[n+](C)c1.F[B-](F)(F)F are 1.91 ± 0.2 and 1.63 ± 0.17.
On the same counts, the results for `CC(C)=O` [acetone] + CCCCCCCC[n+]1ccn(C)c1.F[B-](F)(F)F are 0.78 ± 0.08 and 0.83 ± 0.09.
The like results for `CCc1ccccc1` [ethylbenzene] + CCn1cc[n+](C)c1.F[B-](F)(F)F were, in that order, 7.05 ± 0.74 and 6.87 ± 0.72.
Regarding `CCCCCC` [hexane] + CCn1cc[n+](C)c1.F[B-](F)(F)F, the activity coefficient (303 K, Chromatography) was 125 ± 13; the activity coefficient (323 K, Chromatography) was 113 ± 12; the activity coefficient (343 K, Chromatography) was found to be 64.8 ± 6.8.
As for `ClC(Cl)(Cl)Cl` [tetrachloromethane] + CCCCn1cc[n+](C)c1.F[B-](F)(F)F, the activity coefficient stood at 5.5 ± 0.58 (323 K, Chromatography) and 5.73 ± 0.6 (343 K, Chromatography).
The like results for `CCOCC` [diethyl ether] + CCCCCCCC[n+]1ccn(C)c1.F[B-](F)(F)F were, in that order, 3.2 ± 0.34 and 3.39 ± 0.36.
On to `CCCCCCC` [heptane] + CCCCn1cc[n+](C)c1.F[B-](F)(F)F, for which the activity coefficient stood at 134 ± 14 (303 K, Chromatography); 115 ± 12 (323 K, Chromatography); 99 ± 10 (343 K, Chromatography).
Consider `Cc1ccccc1` [toluene] + CCCCCCCC[n+]1ccn(C)c1.F[B-](F)(F)F, for which the activity coefficient reads like this: (323 K, Chromatography) 1.75 ± 0.18; (343 K, Chromatography) 1.82 ± 0.19.
Regarding `ClC=C(Cl)Cl` [trichloroethene] + CCCCCCCC[n+]1ccn(C)c1.F[B-](F)(F)F, the activity coefficient runs as follows: (323 K, Chromatography) 1.67 ± 0.17; (343 K, Chromatography) 1.76 ± 0.18.
As to `CCc1ccccc1` [ethylbenzene] + CCCCn1cc[n+](C)c1.F[B-](F)(F)F, the activity coefficient worked out at 6.65 ± 0.7 (323 K, Chromatography) and 7.2 ± 0.76 (343 K, Chromatography).
The like results for `CCO` [ethanol] + CCCCCCCC[n+]1ccn(C)c1.F[B-](F)(F)F were, in that order, 1.24 ± 0.13 and 1.1 ± 0.11.
Turning to `CC(C)CC(C)(C)C` [2,2,4-trimethylpentane] + CCCCCCCC[n+]1ccn(C)c1.F[B-](F)(F)F, the activity coefficient was determined as 17.7 ± 1.9 (323 K, Chromatography) and 17 ± 1.8 (343 K, Chromatography).
On to `CO` [methanol] + CCCCCCCC[n+]1ccn(C)c1.F[B-](F)(F)F, for which the activity coefficient is, setting by setting: (303 K, Chromatography) 1.09 ± 0.11; (323 K, Chromatography) 0.94 ± 0.1; (343 K, Chromatography) 0.85 ± 0.09.
On to `ClC(Cl)Cl` [trichloromethane] + CCCCCCCC[n+]1ccn(C)c1.F[B-](F)(F)F, for which the activity coefficient was 0.62 ± 0.07 (323 K, Chromatography) and 0.7 ± 0.07 (343 K, Chromatography).
Consider `ClC=C(Cl)Cl` [trichloroethene] + CCCCCCn1cc[n+](C)c1.F[B-](F)(F)F, for which the activity coefficient (343 K, Chromatography) was 2.53 ± 0.27.
On to `CC(C)O` [propan-2-ol] + CCCCn1cc[n+](C)c1.F[B-](F)(F)F, for which the activity coefficient stood at 2.47 ± 0.11 (323 K, Chromatography) and 2.17 ± 0.1 (343 K, Chromatography).
In the case of `c1ccccc1` [benzene] + CCCCn1cc[n+](C)c1.F[B-](F)(F)F, the activity coefficient came out at 2.39 ± 0.25 (303 K, Chromatography); 2.43 ± 0.26 (323 K, Chromatography); 2.48 ± 0.26 (343 K, Chromatography).
As to `ClC(Cl)Cl` [trichloromethane] + CCCCn1cc[n+](C)c1.F[B-](F)(F)F, the activity coefficient is, setting by setting: (323 K, Chromatography) 1.13 ± 0.12; (343 K, Chromatography) 1.29 ± 0.13.
For the compound `ClCCCl` [1,2-dichloroethane] + CCCCn1cc[n+](C)c1.F[B-](F)(F)F, the activity coefficient (323 K, Chromatography) was 1.51 ± 0.16 and the activity coefficient (343 K, Chromatography) stood at 1.63 ± 0.17.
For `CC(C)O` [propan-2-ol] + CCn1cc[n+](C)c1.F[B-](F)(F)F, the activity coefficient (323 K, Chromatography) was found to be 1.05 ± 0.11 and the activity coefficient (343 K, Chromatography) was 1.01 ± 0.1.
With `CCO` [ethanol] + CCn1cc[n+](C)c1.F[B-](F)(F)F, under “323 K, Chromatography”, the activity coefficient worked out at 0.76 ± 0.08.
Take `CC(C)CC(C)(C)C` [2,2,4-trimethylpentane] + CCCCCCn1cc[n+](C)c1.F[B-](F)(F)F: the activity coefficient by setting is: (303 K, Chromatography) 54.1 ± 5.7; (343 K, Chromatography) 44.5 ± 4.7.
For the compound `Cc1ccccc1` [toluene] + CCCCn1cc[n+](C)c1.F[B-](F)(F)F, the activity coefficient stood at 4.14 ± 0.44 (323 K, Chromatography) and 4.13 ± 0.43 (343 K, Chromatography).
On the same counts, the results for `CCC(C)=O` [butanone] + CCCCCCn1cc[n+](C)c1.F[B-](F)(F)F are 1.14 ± 0.12 and 1.21 ± 0.12.
With `CO` [methanol] + CCn1cc[n+](C)c1.F[B-](F)(F)F, the activity coefficient is 0.43 ± 0.05 (303 K, Chromatography); 0.43 ± 0.05 (323 K, Chromatography); 0.42 ± 0.05 (343 K, Chromatography).
Take `ClC(Cl)(Cl)Cl` [tetrachloromethane] + CCCCCCn1cc[n+](C)c1.F[B-](F)(F)F: the activity coefficient is, setting by setting: (323 K, Chromatography) 3.3 ± 0.35; (343 K, Chromatography) 3.61 ± 0.38.
Turning to `Cc1ccccc1` [toluene] + CCn1cc[n+](C)c1.F[B-](F)(F)F, the activity coefficient (343 K, Chromatography) was 4.03 ± 0.42.
For `C1CCCCC1` [cyclohexane] + CCCCCCn1cc[n+](C)c1.F[B-](F)(F)F, the activity coefficient by setting is: (303 K, Differential ebulliometry) 18.6 ± 1.9; (323 K, Differential ebulliometry) 16.5 ± 1.6; (343 K, Differential ebulliometry) 15.2 ± 1.5.
For `CCC(C)=O` [butanone] + CCCCCCCC[n+]1ccn(C)c1.F[B-](F)(F)F, the activity coefficient is, setting by setting: (323 K, Chromatography) 1.01 ± 0.1; (343 K, Chromatography) 1.04 ± 0.11.
